Measured values published in the supplement of paper PMC11208160.

Test: recombinant UMI read abundance after kanamycin selection (control-corrected) (log10(CPM+1)); higher = more efficient recombination; extreme values may be limits of the assay; sequences stand for … in AGTGCAGAGAAAATCGGCCAGTTTTCTCTGCCTGCAGTCCGCATGCCGTGGGACCCCTTGGGTTCTAACCTGTTGCCTAGATTTATGCAGCGGACTGCCTTTCTCCCAAAGTGATAAACCGG…AGGTTGGTTTCACT; site = the 11-nt donor
In short: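 After plating on IPTG (0.07 mM) plus kanamycin, or unselected, in two replicates, recombinant UMIs were PCR-amplified across the donor–target junction and sequenced. The cells were Escherichia coli co-electroporated with a UMI-tagged donor and donor-binding-loop pair library and a target plasmid with a fixed target and T7-inducible IS621 bridge recombinase. Values are log10(CPM+1), with CPM averaged over replicates and scaled by control-derived factors.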
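Note: IS621 bridge recombinase in Escherichia coli cells against a fixed T5 target plasmid.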

| Sequence | recombinant UMI read abundance (log10) |
| --- | --- |
| ACCGTGACATGGACCGGTTTTCCCGGTAATCCGTATTTGCA (site ACCGTGACTTG) | 2.4 |
| ACCTAGACATGGACCGGTTTTCCCGGTAATCCGTATTTGGG (site AACTAGACTCC) | 0.0442 |
| ACCTAGACATGGACCGGTTTTCCCGGTAATCCGTATTTGGG (site ACATAGACTCC) | 0.00696 |
| ACCTAGACATGGACCGGTTTTCCCGGTAATCCGTATTTGGG (site ACCAAGACTCC) | 0.00495 |
| ACCTAGACATGGACCGGTTTTCCCGGTAATCCGTATTTGGG (site ACCCAGACTCC) | 0.00611 |
| ACCTAGACATGGACCGGTTTTCCCGGTAATCCGTATTTGGG (site ACCGAGACTCC) | 0 |
| ACCTAGACATGGACCGGTTTTCCCGGTAATCCGTATTTGGG (site ACCTAAACTCC) | 0 |
| ACCTAGACATGGACCGGTTTTCCCGGTAATCCGTATTTGGG (site ACCTACACTCC) | 0.0139 |
| ACCTAGACATGGACCGGTTTTCCCGGTAATCCGTATTTGGG (site ACCTAGACTAC) | 0.0239 |
| ACCTAGACATGGACCGGTTTTCCCGGTAATCCGTATTTGGG (site ACCTAGACTCA) | 0.0191 |
| ACCTAGACATGGACCGGTTTTCCCGGTAATCCGTATTTGGG (site ACCTAGACTCC) | 0.0334 |
| ACCTAGACATGGACCGGTTTTCCCGGTAATCCGTATTTGGG (site ACCTAGACTCG) | 0.634 |
| ACCTAGACATGGACCGGTTTTCCCGGTAATCCGTATTTGGG (site ACCTAGACTCT) | 0.00788 |
| ACCTAGACATGGACCGGTTTTCCCGGTAATCCGTATTTGGG (site ACCTAGACTGC) | 0.00778 |
| ACCTAGACATGGACCGGTTTTCCCGGTAATCCGTATTTGGG (site ACCTAGACTTC) | 0.00986 |
| ACCTAGACATGGACCGGTTTTCCCGGTAATCCGTATTTGGG (site ACCTAGCCTCC) | 0.0119 |
| ACCTAGACATGGACCGGTTTTCCCGGTAATCCGTATTTGGG (site ACCTAGGCTCC) | 0.0977 |
| ACCTAGACATGGACCGGTTTTCCCGGTAATCCGTATTTGGG (site ACCTAGTCTCC) | 0.0195 |
| ACCTAGACATGGACCGGTTTTCCCGGTAATCCGTATTTGGG (site ACCTATACTCC) | 0.333 |

| Sequence | recombinant UMI read abundance (log10) |
| --- | --- |
| ACCTAGACATGGACCGGTTTTCCCGGTAATCCGTATTTGGG (site ACCTCGACTCC) | 0.00246 |
| ACCTAGACATGGACCGGTTTTCCCGGTAATCCGTATTTGGG (site ACCTGGACTCC) | 0.0143 |
| ACCTAGACATGGACCGGTTTTCCCGGTAATCCGTATTTGGG (site ACCTTGACTCC) | 0.0253 |
| ACCTAGACATGGACCGGTTTTCCCGGTAATCCGTATTTGGG (site ACGTAGACTCC) | 0.0154 |
| ACCTAGACATGGACCGGTTTTCCCGGTAATCCGTATTTGGG (site ACTTAGACTCC) | 0.0151 |
| ACCTAGACATGGACCGGTTTTCCCGGTAATCCGTATTTGGG (site AGCTAGACTCC) | 0.0336 |
| ACCTAGACATGGACCGGTTTTCCCGGTAATCCGTATTTGGG (site ATCTAGACTCC) | 0.015 |
| ACCTAGACATGGACCGGTTTTCCCGGTAATCCGTATTTGGG (site CCCTAGACTCC) | 0.00828 |
| ACCTAGACATGGACCGGTTTTCCCGGTAATCCGTATTTGGG (site GCCTAGACTCC) | 0.00312 |
| ACCTAGACATGGACCGGTTTTCCCGGTAATCCGTATTTGGG (site TCCTAGACTCC) | 0.0161 |
| ACCTAGCCATGGACCGGTTTTCCCGGTAATCCGTATTTGCC (site ACCTAGCCTGG) | 0 |
| ACCTAGCCATGGACCGGTTTTCCCGGTAATCCGTATTTGCC (site CCCTAGCCTGG) | 0 |
| ACCTAGCCATGGACCGGTTTTCCCGGTAATCCGTATTTGCC (site GCCTAGCCTGG) | 0 |
| ACCTAGCCATGGACCGGTTTTCCCGGTAATCCGTATTTGCC (site TCCTAGCCTGG) | 0 |
| ACCTAGGCATGGACCGGTTTTCCCGGTAATCCGTATTTGGG (site ACCTAGACTCC) | 0.00318 |
| ACCTAGGCATGGACCGGTTTTCCCGGTAATCCGTATTTGGG (site ACCTAGCCTCC) | 0.0364 |
| ACCTAGGCATGGACCGGTTTTCCCGGTAATCCGTATTTGGG (site ACCTAGGCTCC) | 0.0121 |
| ACCTAGGCATGGACCGGTTTTCCCGGTAATCCGTATTTGGG (site ACCTAGTCTCC) | 0.0121 |
